Earlier results on one molecule are cited in US20090239822A1, “Process for the preparation of esters of diacerein with hyaluronic acid and pharmaceutical compositions containing such esters” (priority 2006, published 2009).

The conditions of this data set: rhein from the pro-drug diacerein.

In the case of `O=C(O)c1cc(O)c2c(c1)C(=O)c1cccc(O)c1C2=O` [rhein], the concentration in the synovial liquid was 1 to 10 µM.
